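96-well plates; 48 h exposure; 5 concentrations. Endpoints by linear interpolation between flanking doses. Not reached: highest tested concentration assigned. Here, GI50 denotes the concentration required for 50% inhibition of growth. TGI: total growth inhibition.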
Columns and labels:
Assay in all cases: inhibition of tumour cell growth, NCI panel, 48 h
HOP-62 NSCLC = system: HOP-62 NSCLC
UACC-62 melanoma = system: UACC-62 melanoma
HT29 colon = system: HT29 colon
CCRF-CEM leukemia = system: CCRF-CEM leukemia
HL-60(TB) leukemia = system: HL-60(TB) leukemia
COLO 205 colon = system: COLO 205 colon
NCI-H522 lung = system: NCI-H522 lung
SN12C renal = system: SN12C renal
SF-268 CNS = system: SF-268 CNS
IGROV1 ovarian = system: IGROV1 ovarian

| Structure (SMILES) | GI50 (HOP-62 NSCLC) | TGI (HOP-62 NSCLC) | GI50 (UACC-62 melanoma) | TGI (UACC-62 melanoma) | GI50 (HT29 colon) | TGI (HT29 colon) | GI50 (CCRF-CEM leukemia) | TGI (CCRF-CEM leukemia) | GI50 (HL-60(TB) leukemia) | TGI (HL-60(TB) leukemia) | GI50 (COLO 205 colon) | TGI (COLO 205 colon) | GI50 (NCI-H522 lung) | TGI (NCI-H522 lung) | GI50 (SN12C renal) | TGI (SN12C renal) | GI50 (SF-268 CNS) | TGI (SF-268 CNS) | GI50 (IGROV1 ovarian) | TGI (IGROV1 ovarian) |
| --- | --- | --- | --- | --- | --- | --- | --- | --- | --- | --- | --- | --- | --- | --- | --- | --- | --- | --- | --- | --- |
| CCN(Cc1cccc(F)c1)c1ccc(CO)c(Cl)c1 | 1.02 µM | > 37.6 µM | 0.0741 µM | 0.649 µM | 3.42 µM | > 51.4 µM | 24 µM | > 80.7 µM | 19.6 µM | > 69.8 µM | 1.57 µM | 4.85 µM | 19.2 µM | 58.6 µM | 14.6 µM | > 50.5 µM | 29.9 µM | > 82.8 µM | 0.0779 µM | 1.15 µM |
| COc1ccc(S(=O)(=O)N2CC(C)(C)CN(S(=O)(=O)c3ccc(OC)cc3)C2C(=O)NO)cc1 | > 20 µM | > 20 µM | > 19.2 µM | > 20 µM | > 20 µM | > 20 µM | 1.29 µM | > 16.6 µM | > 10.6 µM | > 20 µM | > 20 µM | > 20 µM | > 20 µM | > 20 µM | > 20 µM | > 20 µM | > 20 µM | > 20 µM | > 20 µM | > 20 µM |
| Cc1ccc(S(=O)(=O)NC(=O)C2C(=O)CC3(CCCCC3)CC2=O)cc1 |  | > 100 µM |  | 83.8 µM |  | 92.5 µM |  | 69.8 µM |  | 65.8 µM |  | 32.2 µM |  | 59.9 µM |  | 86.4 µM |  | > 100 µM |  | 71.1 µM |
| C#CCOc1cccc(-c2ncnc3cc(NC(=O)CCl)ccc23)c1 | 2.36 µM | 7.18 µM | 0.481 µM | 3.07 µM | 0.0502 µM | 1.49 µM | 0.0249 µM |  | 0.536 µM | 4.36 µM | 0.0976 µM | 2.77 µM | 0.149 µM | 1.71 µM | 0.115 µM | 1.41 µM | 0.669 µM | 2.94 µM | 0.0612 µM | 1.92 µM |
| C=C1C(O)C2C(=C(CCc3ccccc3)C13CC3)C(=O)C(C)(CO)C2O (configuration not stated) | > 100 µM | > 100 µM | > 100 µM | > 100 µM | > 100 µM | > 100 µM | > 100 µM | > 100 µM | 81.9 µM | > 100 µM | > 100 µM | > 100 µM | > 100 µM | > 100 µM | > 100 µM | > 100 µM | > 100 µM | > 100 µM | > 100 µM | > 100 µM |
| CC(=O)[CH-]C(C)=O.CC(=O)[CH-]C(C)=O.[CH2-]CCC.[CH2-]CCC.[Sn+4] | 2.02 µM | 3.56 µM | 0.31 µM | 1.18 µM | 1.28 µM | 2.59 µM | 0.0483 µM |  | 0.347 µM | 2.73 µM | 0.304 µM | 1.05 µM | 0.0586 µM | 0.122 µM | 0.346 µM | 1.67 µM | 0.291 µM | 1.2 µM | 1.23 µM | 2.66 µM |
| [Cl-].[O-]/N=C(\c1ccccc1)c1ccccn1.[O-]/N=C(\c1ccccc1)c1ccccn1.[O-]/N=C(\c1ccccc1)c1ccccn1.[Sm+3] | 28 µM | > 100 µM | 26.2 µM | 78.7 µM | 44 µM | > 100 µM | 26.6 µM | 98.8 µM | 20.1 µM | 62.1 µM | 31.3 µM | > 100 µM | 24.6 µM | 75.3 µM | 33.1 µM | > 100 µM | 30 µM | 87.3 µM | 27.8 µM | 79.6 µM |
| COc1ccc2c(CN3CCCCC3CO)cc3cc(OC)c(OC)cc3c2c1 (configuration not stated) |  | 20.7 µM |  | 25.7 µM |  | 11.4 µM |  | 18.8 µM |  | 12.5 µM |  | 10.3 µM |  | 7.72 µM |  | 26.2 µM |  | 20.1 µM |  | 61.1 µM |
| CCCCCC(=O)C(C)C1=Nc2nnc(CCCCCCCc3nnc4n3C(=O)C(C(C)C(=O)CCCCC)=N4)n2C1=O (configuration not stated) |  | > 100 µM |  | > 100 µM |  | > 100 µM |  | > 100 µM |  | > 100 µM |  | > 100 µM |  | > 100 µM |  | > 100 µM |  | > 100 µM |  | > 100 µM |
| OCc1ccc(-c2ccc(-c3ccc(CO)o3)[se]2)o1 | > 80.4 µM | > 100 µM | 8.72 µM | > 100 µM | > 95 µM | > 100 µM | 35.5 µM | > 100 µM | 39.7 µM | > 100 µM | 60.2 µM | > 100 µM | 53.4 µM | > 100 µM | > 100 µM | > 100 µM | > 100 µM | > 100 µM | 9.28 µM | > 100 µM |
| C=C(C)C(=O)O[C@H]1C[C@@]23O[C@@H]2CCC(=C[C@H]2OC(=O)C(=C)[C@H]12)COC3O (some centres not stated) |  | > 100 µM |  | > 100 µM |  | > 100 µM |  | 50.1 µM |  | 48.3 µM |  | 56.8 µM |  | 30.7 µM |  | > 100 µM |  | > 100 µM |  | > 100 µM |
| CC(C)(C)C(=O)c1c(C(F)(F)F)n([O-])c2ccccc2[n+]1=O | 1.47 µM | 2.94 µM | 1.33 µM | 2.66 µM | 0.368 µM |  | 0.577 µM | 2.34 µM | 0.204 µM | 1.08 µM | 0.616 µM | 1.73 µM | 0.407 µM | 0.924 µM | 0.665 µM | 2.32 µM | 0.549 µM | 1.75 µM | 0.0505 µM | 0.172 µM |
| COc1ccc2c(C)cc(N/N=C/c3ccc(OC)c4ccccc34)nc2c1 |  | 34.4 µM |  | 28.3 µM |  | 32.7 µM |  | 7.47 µM |  | 49.3 µM |  | 42 µM |  | 26.7 µM |  | 5.52 µM |  | 32.6 µM |  | 29.3 µM |
| Cc1nn(-c2nc3ccccc3[nH]2)c(N)c1-c1ccc(Cl)cc1 | 7.29 µM | > 100 µM | 5.9 µM | > 100 µM | 4.35 µM | 67.8 µM | 2.92 µM | > 100 µM | 4.31 µM | 25.1 µM | 4.17 µM | > 100 µM | 4.04 µM | > 100 µM | 5.52 µM | > 100 µM | 5.65 µM | > 100 µM | 7.75 µM | > 100 µM |

Source: PubChem BioAssay (NCI)
